Article PMC5267425, “Identification of small molecule modulators of HIV-1 Tat and Rev protein accumulation” (Retrovirology, 2017)

Tested on: cellular gene expression in HeLa rtTA HIV∆Mls cells

Cc1cc(NCc2cccnc2)n2ncc(-c3ccc(Cl)cc3)c2n1 [Compound 791, 3-(4-chlorophenyl)-5-methyl-N-(3-pyridinylmethyl)pyrazolo[1,5-a]pyrimidin-7-amine]
SETMAR expression fold change: 0.745 | SFPQ expression fold change: 0.604 | SFRS13A expression fold change: 1.164 | SH2D4A expression fold change: 1.164 | SH3BGR Mean fold change: 1.680 | SHPK expression fold change: 0.869 | SIAH1 Mean fold change: 1.613 | SIAH2 Mean fold change: 1.494 | SIKE1 expression fold change: 1.279 | SKA2 expression fold change: 0.700 | SLC1A5 Mean fold change: 2.013 | SLC6A9 Mean fold change: 1.846 | SLC6A15 Mean fold change: 1.859 | SLC9A3 Mean fold change: 1.796 | SLC10A3 expression fold change: 0.873 | SLC16A1 expression fold change: 1.148 | SLC22A15 Mean fold change: 2.322 | SLC25A23 expression fold change: 0.855 | SLC26A11 expression fold change: 1.295 | SLC29A1 expression fold change: 0.814 | SLC35B3 expression fold change: 1.282 | SLC38A6 expression fold change: 1.215 | SLC39A6 expression fold change: 1.389 | SMARCA1 expression fold change: 0.805 | SMARCA5 expression fold change: 0.811 | SMARCC1 expression fold change: 0.845 | SMC2 expression fold change: 0.736 | SMC4 expression fold change: 0.769 | SMEK2 expression fold change: 1.332 | SMS expression fold change: 0.802 | SMTN expression fold change: 0.528 | SNAPC5 Mean fold change: 1.498 | SNX7 expression fold change: 0.747 | SNX10 Mean fold change: 2.399 | SOD1 expression fold change: 0.780 | SOX12 expression fold change: 0.979 | SPCS1 expression fold change: 1.045 | SPR expression fold change: 0.726 | SPRED2 Mean fold change: 2.080 | SPRYD4 expression fold change: 0.835 | SPTAN1 expression fold change: 0.613 | SQSTM1 expression fold change: 1.336 | SRPK1 expression fold change: 1.142 | SS18L1 expression fold change: 1.184 | SSR4 expression fold change: 1.121 | ST5 expression fold change: 0.715 | ST6GALNAC4 expression fold change: 1.270 | ST7L expression fold change: 1.363 | STAG3L4 Mean fold change: 1.432 | STAMBP expression fold change: 1.360 | STARD4 expression fold change: 0.603 | STK24 expression fold change: 1.344 | STK36 expression fold change: 1.268 | STK38 expression fold change: 0.829 | STK40 expression fold change: 1.375 | STMN1 expression fold change: 0.737 | STX4 expression fold change: 1.358 | SUN1 expression fold change: 0.880 | SUPT3H expression fold change: 1.089 | SUPT16H expression fold change: 1.113 | SWAP70 expression fold change: 0.801 | SYNPO expression fold change: 0.615 | TAB1 expression fold change: 1.071 | TADA2B expression fold change: 1.205 | TAF1C expression fold change: 1.085 | TAF3 expression fold change: 1.132 | TAF4B expression fold change: 0.875 | TAGLN2 expression fold change: 0.573 | TATDN1 Mean fold change: 1.544 | TBC1D23 expression fold change: 0.831 | TBC1D25 expression fold change: 0.892 | TBCCD1 expression fold change: 1.231 | TBCD expression fold change: 0.769 | TBL1X expression fold change: 1.190 | TBX1 expression fold change: 0.707 | TCEA1 Mean fold change: 2.377 | TCTA expression fold change: 0.691 | TEX2 expression fold change: 1.153 | TEX261 expression fold change: 0.826 | TFAP2A expression fold change: 0.742 | TGDS expression fold change: 1.239 | TGFA Mean fold change: 2.015 | THAP2 Mean fold change: 1.505 | TIGD2 expression fold change: 1.326 | TIGD6 Mean fold change: 1.617 | TIMELESS expression fold change: 1.079 | TIMM17B expression fold change: 1.193 | TIMP4 Mean fold change: 2.098 | TIPRL expression fold change: 1.158 | TLE3 expression fold change: 0.824 | TM4SF1 expression fold change: 0.658 | TM4SF19 Mean fold change: 2.453 | TM9SF4 expression fold change: 1.144 | TMED9 expression fold change: 0.713 | TMEM33 expression fold change: 1.367 | TMEM51 expression fold change: 1.103 | TMEM55A Mean fold change: 1.593 | TMEM68 expression fold change: 1.389 | TMEM69 expression fold change: 0.879 | TMEM120B expression fold change: 1.358 | TMEM126B expression fold change: 1.318 | TMEM128 Mean fold change: 1.475 | TMEM133 expression fold change: 0.678 | TMEM134 expression fold change: 1.333 | TMEM136 Mean fold change: 1.653 | TMEM138 expression fold change: 1.174 | TMEM167B expression fold change: 1.381 | TMEM184B expression fold change: 0.777 | TMSB10 expression fold change: 0.763 | TNKS2 expression fold change: 1.115 | TNS3 expression fold change: 0.625 | TOM1 expression fold change: 1.142 | TOP1 Mean fold change: 1.433 | TOP2B expression fold change: 0.838 | TOR3A Mean fold change: 2.169 | TPD52 expression fold change: 0.814 | TPK1 Mean fold change: 1.463 | TRAPPC6B Mean fold change: 1.516 | TRIB3 Mean fold change: 9.286 | TRIM5 expression fold change: 0.541 | TRIM8 expression fold change: 1.137 | TRIM11 expression fold change: 1.129 | TRIM38 expression fold change: 1.268 | TRIP12 expression fold change: 0.897 | TRIP13 expression fold change: 0.826 | TRMT2A expression fold change: 1.232 | TRNP1 expression fold change: 0.822 | TRNT1 expression fold change: 1.353 | TRUB2 expression fold change: 0.915 | TSEN2 Mean fold change: 1.417 | TSEN15 Mean fold change: 1.483 | TSPAN14 expression fold change: 1.164 | TSR2 expression fold change: 0.870 | TSSK6 Mean fold change: 1.615 | TTC9C expression fold change: 1.292 | TTC13 Mean fold change: 1.539 | TTC17 Mean fold change: 1.465 | TTLL4 expression fold change: 1.144 | TTRAP Mean fold change: 1.772 | TUBA1C expression fold change: 0.608 | TUBGCP4 expression fold change: 1.159 | TXNDC11 expression fold change: 0.839 | TXNRD2 expression fold change: 0.682 | UBAP2L expression fold change: 0.784 | UBAP2 expression fold change: 0.809 | UBE2CBP expression fold change: 1.206 | UBE2E3 expression fold change: 0.823 | UBE2F expression fold change: 1.199 | UBE3A expression fold change: 1.133 | UBL5 expression fold change: 0.749 | UBXN2B Mean fold change: 1.412 | UNC13D expression fold change: 0.656 | UPF1 expression fold change: 0.745 | UPP1 Mean fold change: 1.696 | USP3 expression fold change: 1.367 | USP13 expression fold change: 0.835 | USP43 expression fold change: 0.526 | USP45 expression fold change: 1.299 | VHL expression fold change: 1.356 | VPS4B expression fold change: 0.923 | VPS45 expression fold change: 1.169 | WARS Mean fold change: 4.515 | WBSCR16 expression fold change: 0.745 | WDFY1 expression fold change: 1.061 | WDR67 Mean fold change: 1.463 | WDR73 expression fold change: 1.398 | WDR85 Mean fold change: 1.430 | WDR86 Mean fold change: 1.956 | WI2-3658N16.1 Mean fold change: 2.029 | XBP1 Mean fold change: 1.642 | XPNPEP3 Mean fold change: 1.531 | XPO5 expression fold change: 1.247 | XPO7 expression fold change: 0.941 | XPOT Mean fold change: 2.053 | XRCC6BP1 expression fold change: 1.139 | YAP1 expression fold change: 1.104 | YARS Mean fold change: 1.734 | ZBED1 expression fold change: 0.668 | ZBED5 expression fold change: 1.276 | ZBTB8A expression fold change: 1.143 | ZBTB26 expression fold change: 1.398 | ZBTB34 expression fold change: 1.406 | ZC3H4 expression fold change: 0.785 | ZC3H7A expression fold change: 0.841 | ZC3H8 Mean fold change: 1.710 | ZC3H14 expression fold change: 1.133 | ZCCHC4 expression fold change: 1.276 | ZCCHC8 expression fold change: 1.219 | ZCCHC9 expression fold change: 1.340 | ZFAND1 Mean fold change: 1.472 | ZFP30 expression fold change: 1.219 | ZFP36L2 expression fold change: 1.274 | ZFP64 expression fold change: 1.227 | ZFP161 Mean fold change: 1.683 | ZFYVE20 expression fold change: 1.201 | ZFYVE27 expression fold change: 1.318 | ZHX2 Mean fold change: 1.409 | ZIC2 Mean fold change: 1.423 | ZNF12 expression fold change: 1.245 | ZNF25 Mean fold change: 1.879 | ZNF28 expression fold change: 1.179 | ZNF91 expression fold change: 1.253 | ZNF133 expression fold change: 1.224 | ZNF184 expression fold change: 1.308 | ZNF193 expression fold change: 1.323 | ZNF195 expression fold change: 1.289 | ZNF217 Mean fold change: 1.446 | ZNF239 Mean fold change: 1.543 | ZNF252 Mean fold change: 1.609 | ZNF295 Mean fold change: 1.482 | ZNF319 expression fold change: 1.386 | ZNF320 expression fold change: 1.362 | ZNF354A expression fold change: 1.350 | ZNF354B Mean fold change: 1.466 | ZNF410 Mean fold change: 1.435 | ZNF419 Mean fold change: 1.789 | ZNF433 Mean fold change: 1.676 | ZNF445 expression fold change: 1.297 | ZNF493 Mean fold change: 1.482 | ZNF500 expression fold change: 1.175 | ZNF547 expression fold change: 1.209 | ZNF554 expression fold change: 1.212 | ZNF558 Mean fold change: 1.502 | ZNF566 expression fold change: 1.349 | ZNF567 expression fold change: 1.133 | ZNF592 expression fold change: 1.148 | ZNF619 expression fold change: 1.402 | ZNF664 expression fold change: 1.294 | ZNF669 expression fold change: 1.198 | ZNF700 expression fold change: 1.242 | ZNF706 expression fold change: 1.373 | ZNF746 expression fold change: 1.115 | ZNF747 expression fold change: 1.143 | ZNF764 expression fold change: 1.241 | ZNF770 Mean fold change: 1.508 | ZNF780A expression fold change: 1.192 | ZNF780B expression fold change: 1.397 | ZNF800 expression fold change: 1.234 | ZRSR2 expression fold change: 1.249 | ZSCAN12 Mean fold change: 1.516 | ZSCAN30 Mean fold change: 1.472 | ZSWIM7 expression fold change: 1.339 | fold change in expression of gene APBB1: 0.456 | fold change in expression of gene C19orf21: 0.393 | fold change in expression of gene CACNG4: 0.431 | fold change in expression of gene CAV1: 0.418 | fold change in expression of gene CDKN2AIP: 0.467 | fold change in expression of gene CITED2: 0.434 | fold change in expression of gene COL9A3: 0.376 | fold change in expression of gene CRISPLD2: 0.367 | fold change in expression of gene CSDC2: 0.362 | fold change in expression of gene CTGF: 0.371 | fold change in expression of gene CYR61: 0.369
